Experimental data as given in patent publication US20150289513A1, “USE OF A COMPOUND COMPRISING A POLYFLUOROBENZYL MOIETY AGAINST INSECTICIDE-RESISTANT PESTS” (priority 2012, published 2015).

Assays:
[1] = tested on: Culex quinquefasciatus (metabolic-resistant to DDT; strain P00); assay: Glazed tile contact test, knock-down; format: in vivo
Protocol: To produce a suitable preparation Transfluthrin was dissolved in acetone. The active compound solution was pipetted onto a glazed tile and, after drying, adult mosquitoes of the species: • Anopheles gambiae (target-site-resistant and metabolic-resistant strain: RSPH), • Anopheles gambiae (target-site-resitant and metabolic-resistant strain: Tiassalé), • Anopheles gambiae (tar et-site-resitant and metabolic-resistant strain: Akron), • Anopheles gambiae (target-site-resistant strain: VK7), and • Anopheles funestus (metabolic-resistant strain FUMOZ-R) were placed onto the treated tile (each strain was tested on separate tiles). The exposition time was 30 minutes.
Similarly as outlined in example 2 for Transfluthrin, Metofluthrin efficacy was assessed against • Anopheles gambiae (target-site-resistant and metabolic-resistant strain: RSPH), • Anopheles funestus (metabolic-resistant strain FUMOZ-R), and • Culex quinquefasciatus (metabolic-resistant to DDT; strain P00), with the results shown in Tables 10 to 12. 0.25 hours, 0.5 hours, 1 hour, 2 hour, 3 hour, 4 hour and 24 hours after contact to the treated surface, the knock-down proportion of the test animals in % is depicted in Tables 10 to 12. 100% (effect) means that all mosquitoes have been killed; 0% (effect) means that none of the mosquitoes have been killed.

[2] = tested on: Cimex Lectularius, strain Cincinnati (CIN-1); assay: Spray test on bed bugs on glazed tile; format: in vivo; conditions: for Amount of animals that are knocked down/killed: 10 bed bugs
Protocol: To produce a suitable preparation Transfluthrin was dissolved in acetone in various concentrations (0.1 mg Transfluthrin/ml; 0.01 mg Transfluthrin/ml and 0.001 mg Transfluthrin/ml). Efficacy tests were done by placing 10 bed bug test animals (Cimex Lectularius, strain Cincinnati (CIN-1)) onto a glazed tile. The prepared solutions in various concentractions were sprayed with a glass nozzle onto the bed bugs on the glazed tile. After spraying the bed bugs were transferred to plastic cups. 5 minutes, 10 minutes, 15 minutes, 20 minutes, 0.5 hour, 1 hour, 2 hour, 4 hour and 24 hours after the treatment, the knock-down proportion of the test animals was determined.

CC=CC1C(C(=O)OCc2c(F)c(F)c(COC)c(F)c2F)C1(C)C (centres unmarked) [Metofluthrin, 2,3,5,6-Tetrafluoro-4-(methoxymethyl)benzyl 2,2-dimethyl-3-(prop-1-en-1-yl)cyclopropanecarboxylate]
Effect % ([1]; 0.064 /ha, 0.25 h after contact): 0% | Effect % ([1]; 0.064 /ha, 0.5 h after contact): 0% | Effect % ([1]; 0.064 /ha, 1 h after contact): 0% | Effect % ([1]; 0.064 /ha, 2 h after contact): 0% | Effect % ([1]; 0.064 /ha, 3 h after contact): 0% | Effect % ([1]; 0.064 /ha, 4 h after contact): 0% | Effect % ([1]; 0.064 /ha, 24 h after contact): 0% | Effect % ([1]; 0.32 /ha, 0.25 h after contact): 0% | Effect % ([1]; 0.32 /ha, 0.5 h after contact): 0% | Effect % ([1]; 0.32 /ha, 1 h after contact): 0% | Effect % ([1]; 0.32 /ha, 2 h after contact): 0% | Effect % ([1]; 0.32 /ha, 3 h after contact): 0% | Effect % ([1]; 0.32 /ha, 4 h after contact): 0% | Effect % ([1]; 0.32 /ha, 24 h after contact): 10% | Effect % ([1]; 1.6 /ha, 0.25 h after contact): 90% | Effect % ([1]; 1.6 /ha, 0.5 h after contact): 100% | Effect % ([1]; 1.6 /ha, 1 h after contact): 100% | Effect % ([1]; 1.6 /ha, 2 h after contact): 100% | Effect % ([1]; 1.6 /ha, 3 h after contact): 100% | Effect % ([1]; 1.6 /ha, 4 h after contact): 100% | Effect % ([1]; 1.6 /ha, 24 h after contact): 100% | Effect % ([1]; 8 /ha, 0.25 h after contact): 100% | Effect % ([1]; 8 /ha, 0.5 h after contact): 100% | Effect % ([1]; 8 /ha, 1 h after contact): 100% | Effect % ([1]; 8 /ha, 2 h after contact): 100% | Effect % ([1]; 8 /ha, 3 h after contact): 100% | Effect % ([1]; 8 /ha, 4 h after contact): 100% | Effect % ([1]; 8 /ha, 24 h after contact): 100% | Effect % ([1]; 40 /ha, 0.25 h after contact): 100% | Effect % ([1]; 40 /ha, 0.5 h after contact): 100% | Effect % ([1]; 40 /ha, 1 h after contact): 100% | Effect % ([1]; 40 /ha, 2 h after contact): 100% | Effect % ([1]; 40 /ha, 3 h after contact): 100% | Effect % ([1]; 40 /ha, 4 h after contact): 100% | Effect % ([1]; 40 /ha, 24 h after contact): 100% | Effect % ([1]; 200 /ha, 0.25 h after contact): 100% | Effect % ([1]; 200 /ha, 0.5 h after contact): 100% | Effect % ([1]; 200 /ha, 1 h after contact): 100% | Effect % ([1]; 200 /ha, 2 h after contact): 100% | Effect % ([1]; 200 /ha, 3 h after contact): 100% | Effect % ([1]; 200 /ha, 4 h after contact): 100% | Effect % ([1]; 200 /ha, 24 h after contact): 100% | Effect % ([1]; 1000 /ha, 0.25 h after contact): 100% | Effect % ([1]; 1000 /ha, 0.5 h after contact): 100% | Effect % ([1]; 1000 /ha, 1 h after contact): 100% | Effect % ([1]; 1000 /ha, 2 h after contact): 100% | Effect % ([1]; 1000 /ha, 3 h after contact): 100% | Effect % ([1]; 1000 /ha, 4 h after contact): 100% | Effect % ([1]; 1000 /ha, 24 h after contact): 100%

CC1(C)[C@H](C=C(Cl)Cl)[C@H]1C(=O)OCc1c(F)c(F)cc(F)c1F [Transfluthrin, (1R,3S)-3-(2,2-Dichlorovinyl)-2,2-dimethyl-1-cyclopropanecarboxylic acid (2,3,5,6-tetrafluorophenyl)methyl ester]
Amount of animals that are knocked down/killed ([2]; 0.001 mg Transfluthrin/ml Aceton, 10 min after spray): 0 | Amount of animals that are knocked down/killed ([2]; 0.001 mg Transfluthrin/ml Aceton, 15 min after spray): 0 | Amount of animals that are knocked down/killed ([2]; 0.001 mg Transfluthrin/ml Aceton, 20 min after spray): 0 | Amount of animals that are knocked down/killed ([2]; 0.001 mg Transfluthrin/ml Aceton, 30 min after spray): 0 | Amount of animals that are knocked down/killed ([2]; 0.001 mg Transfluthrin/ml Aceton, 60 min after spray): 1 | Amount of animals that are knocked down/killed ([2]; 0.001 mg Transfluthrin/ml Aceton, 120 min after spray): 1 | Amount of animals that are knocked down/killed ([2]; 0.001 mg Transfluthrin/ml Aceton, 240 min after spray): 0 | Amount of animals that are knocked down/killed ([2]; 0.001 mg Transfluthrin/ml Aceton, 1440 min after spray): 3 | Amount of animals that are knocked down/killed ([2]; 0.01 mg Transfluthrin/ml Aceton, 10 min after spray): 6 | Amount of animals that are knocked down/killed ([2]; 0.01 mg Transfluthrin/ml Aceton, 15 min after spray): 9 | Amount of animals that are knocked down/killed ([2]; 0.01 mg Transfluthrin/ml Aceton, 20 min after spray): 10 | Amount of animals that are knocked down/killed ([2]; 0.01 mg Transfluthrin/ml Aceton, 30 min after spray): 10 | Amount of animals that are knocked down/killed ([2]; 0.01 mg Transfluthrin/ml Aceton, 60 min after spray): 10 | Amount of animals that are knocked down/killed ([2]; 0.01 mg Transfluthrin/ml Aceton, 120 min after spray): 10 | Amount of animals that are knocked down/killed ([2]; 0.01 mg Transfluthrin/ml Aceton, 240 min after spray): 10 | Amount of animals that are knocked down/killed ([2]; 0.01 mg Transfluthrin/ml Aceton, 1440 min after spray): 7 | Amount of animals that are knocked down/killed ([2]; 0.1 mg Transfluthrin/ml Aceton, 10 min after spray): 9 | Amount of animals that are knocked down/killed ([2]; 0.1 mg Transfluthrin/ml Aceton, 15 min after spray): 10 | Amount of animals that are knocked down/killed ([2]; 0.1 mg Transfluthrin/ml Aceton, 20 min after spray): 10 | Amount of animals that are knocked down/killed ([2]; 0.1 mg Transfluthrin/ml Aceton, 30 min after spray): 10 | Amount of animals that are knocked down/killed ([2]; 0.1 mg Transfluthrin/ml Aceton, 60 min after spray): 10 | Amount of animals that are knocked down/killed ([2]; 0.1 mg Transfluthrin/ml Aceton, 120 min after spray): 10 | Amount of animals that are knocked down/killed ([2]; 0.1 mg Transfluthrin/ml Aceton, 240 min after spray): 10 | Amount of animals that are knocked down/killed ([2]; 0.1 mg Transfluthrin/ml Aceton, 1440 min after spray): 9 | Efficiency against insecticide-resistant bed bug strain ([2]; in vivo): efficient
